Earlier results as cited in patent US9610269B2, “Method of treating a disease condition susceptible to baclofen therapy” (SUN PHARMA ADVANCED RESEARCH COMPANY LTD., priority 2010, dated 2017).

Experiments:
[1] = in vivo
[2] = at the actual pH values

For `NCC(CC(=O)O)c1ccc(Cl)cc1` (stereo not shown) [baclofen, 4-amino-3-(p-chlorophenyl) butyric acid], the Plasma elimination half-life [1] is listed as “approximately 3.5 hours”, the “fraction metabolized in the liver” value [1] is listed as 15% and the “serum concentration considered an effective concentration” value [1] is listed as no less than 80 ng/mL. For the same compound, the “lipophilicity of the drug” value [2] was “negligible”.
